Laboratory results published in patent US6984656B2, “Core modified porphyrins” (priority 2001, dated 2006).
Read-outs that look alike come from different tables or passages of the source. Marks after values point to notes of the source that are not given here.

Columns and labels:
Colo-26 cells = test: Dark and light-induced toxicity toward Colo-26 cells in culture; assay type: cell-based, murine; conditions: for EC50: 4 J cm^−2 of 590-800 nm light
Experimental: In order to compare relative phototoxicity, the core-modified porphyrins of Table 1 were evaluated in culture for dark and light-induced toxicities toward Colo-26 cells, a murine colon carcinoma cell line.

[1] = Quantum yield for the generation of singlet oxygen; assay type: physicochemical; conditions: aqueous solution
two tumor cell lines = test: Phototoxicity in two tumor cell lines in vitro; assay type: cell-based
Experimental: The topological and chemical properties of dichalcogenaporphyrins impart unexpected biological properties relative to the corresponding porphyrin derivatives. 5,10,15,20-tetrakis(4-sulfonatophenyl)-21-thiaporphyrin 8 and 21-selenaporphyrin 9 (FIG. 13) were prepared and evaluated the phototoxicity in two tumor cell lines in vitro.

[2] = Single-photon quantum yield for fluorescence; assay type: physicochemical; conditions: for emissiveness relative to dithiaporphyrin analogue: 7 vs 6, 10 vs DH-82; for quantum yield for fluorescence φF (± σ): one-photon, standard TPPS4 in water
Excerpt: In vivo fluorescence techniques have had significant impact on the development of PDT with respect to the pharmacokinetics of sensitizers and to PDT dosimetry. Photofrin® has been used in fluorescent diagnostics and the fluorescence of TPPS4 has been extensively studied. […] The quantum yield standard used in these studies was a freshly prepared solution of TPPS4 (φF =0.12) dissolved in water.

[3] = Rate of photobleaching in phosphate-buffered saline; assay type: physicochemical; conditions: PBS; 570-750 nm light at 500 mW cm^−2; constant initial absorbance
Excerpt: One limitation of PDT dosimetry is the rate of photobleaching of the photosensitizer, which can be problematic with Photofrin® and even more problematic with the bacteriochlorins and the chlorins (such as HPPH).

[4] = tested on: R3230AC rat mammary adenocarcinoma cells; test: Phototoxicity toward R3230AC cells in culture; assay type: cell-based; conditions: 10 μM, 24 h; 570-800 nm light, 0.9 J cm^−2; 24 h post-irradiation
Experimental: Similar results were obtained with R3230AC rat mammary adenocarcinoma cells in vitro. […] Light-treated cells and dark controls were incubated for 24 h and cell survival was determined. The surviving fraction, 24 h post-irradiation, is shown graphically in FIG. 4c.

Colo-26 tumors = test: PDT against implanted Colo-26 tumors in BALB/c mice; assay type: in vivo
Experimental: Core-modified porphyrin 6 gave a PDT response in vivo with 694-nm light in BALB/c mice bearing Colo-26 tumors. Animals treated with photosensitizer 6 at 3.25 mg (3.0 μmol)/kg and light required 10.3±0.8 d to reach 400-mm^3 tumor volume, which was more than double the time for control animals (4.3±1.0 d) receiving neither drug nor light (P <0.01).
The animals were irradiated 4 h post-injection with 135 J cm^−2 of 694-nm red light from a dye laser (75 mW cm^−2 for 30 min). […] For comparison purposes, BALB/C mice bearing Colo-26 tumors were given 2.5 mg (4.0 μmol)/kg of Photofrin® as a 5% aqueous dextrose solution and were irradiated 24 h later with 135 J cm^−2 of 630-nm laser light at a power of 75 mW cm^−2 for PDT with Photofrin®.
Animals initially were given i.v. (tail vein) injections of sensitizer at various concentrations (0.05to 5.0 μmol/kg). Mice were restrained at various times thereafter without anesthesia in specially designed holders. Fischer 344 female rats were chemically restrained at various times thereafter. In both models, tumors or normal back skin were exposed to light from a xenon arc lamp with appropriate filters or to a dye laser tuned to the absorption maximum determined by in vivo reflectance measurements. Power density of delivered light typically fell in the range of 10-200 mW cm^−2 evenly distributed to a spot size of roughly 1.5 cm and measured by a radiometer. Several dose rates were explored to examine role/limitation of available oxygen on the photodynamic process. Intratumor temperatures were measured with an Omega HYP-O microthermocouple and, when necessary, a stream of nitrogen gas was used to keep intratumor temperatures below 37° C. Animals were examined and measured daily for the first 14 days post treatment and every other day thereafter until the tumors reached 400 mm^3 in mice or until the tumors double in size for Fischer 344 female rats or for 90 days. Tumor size were measured in two dimensions with a caliper. Time to 400 mm^3 or volume doubling times of tumors from control and PDT-treated groups (8-12 animals per group) were compared statistically using the SAS statistical program (SAS, Inc., Cary, N.C.). A P-value of <0.05 is considered significant. The degree of damage to the normal skin within the irradiation field also were noted. Disappearance of tumor with minimal damage to normal skin is the most desirable response. Animals are considered cured if no tumor regrowth occurs by 90 days. In all studies, three control groups were utilized in addition to the treatment group receiving both sensitizer and light: 1) a complete control receiving neither drug nor light, 2) a group receiving sensitizer only, and 3) a group receiving light only. Representative animals from each of the treatment groups were processed for histology immediately, one day, or two weeks after irradiation. Step sections through the tumor were used to define the boundaries of tumor cell damage and death as a function of distance from the skin surface.

BALB/c mice = test: Preliminary toxicity, single intravenous injection in BALB/c mice
[5] = in vivo; cited from earlier work
mice = conditions: 150 mg/kg; cited from earlier work
BFS1 sarcoma = conditions: cited from earlier work
[6] = 24 h incubation in dark, survival 24 h later, read-out: effective concentration to give 50% cell-kill of Colo-26 cells in vitro (EC50)
[7] = read-out: EC50 against Colo-26 cells
[8] = 135 J cm^−2, DH-105 2.5, DH-82 0.13, MA-99 0.15 mg/kg, 694 nm 4 h post-injection, Photofrin® 2.5 mg/kg, 630 nm 24 h

5,10,15,20-tetrakis(4-sulfonatophenyl)-21-thiaporphyrin [Compound 8]
EC50 (Colo-26 cells; [6]): > 100000 nM | quantum yield for the generation of singlet oxygen φ(^1O2) [1]: 0.80 ± 0.02 | phototoxicity in two tumor cell lines (two tumor cell lines): Neither 21-core-modified porphyrin displayed significant phototoxicity

O=S(=O)(O)c1ccc(-c2c3nc(c(-c4ccc(S(=O)(=O)O)cc4)c4ccc([se]4)c(-c4ccc(S(=O)(=O)O)cc4)c4nc(c(-c5ccc(S(=O)(=O)O)cc5)c5ccc2[se]5)C=C4)C=C3)cc1 [Compound 7]
EC50 (Colo-26 cells; [6]): > 100000 nM | emissiveness relative to dithiaporphyrin analogue [2]: 10% | quantum yield for fluorescence φF (± σ) [2]: 8.9 (± 0.4) × 10^−4

O=S(=O)([O-])c1ccc(-c2c3nc(c(-c4ccc(S(=O)(=O)[O-])cc4)c4ccc([se]4)c(-c4ccc(S(=O)(=O)[O-])cc4)c4nc(c(-c5ccc(S(=O)(=O)[O-])cc5)c5ccc2[nH]5)C=C4)C=C3)cc1.[Na+].[Na+].[Na+].[Na+] [Compound 9]
phototoxicity in two tumor cell lines (two tumor cell lines): Neither 21-core-modified porphyrin displayed significant phototoxicity

O=S(=O)([O-])c1ccc(-c2c3nc(c(-c4ccc(F)cc4)c4ccc(s4)c(-c4ccc(F)cc4)c4nc(c(-c5ccc(S(=O)(=O)[O-])cc5)c5ccc2[se]5)C=C4)C=C3)cc1.[Na+].[Na+] [Compound 10]
EC50 (Colo-26 cells; [6]): 2100 nM | quantum yield for the generation of singlet oxygen φ(^1O2) [1]: 0.65 ± 0.01 | emissiveness relative to dithiaporphyrin analogue [2]: 2% | quantum yield for fluorescence φF (± σ) [2]: 1.4 (± 0.1) × 10^−4

O=S(=O)([O-])c1ccc(-c2c3nc(c(-c4ccc(F)cc4)c4ccc([se]4)c(-c4ccc(F)cc4)c4nc(c(-c5ccc(S(=O)(=O)[O-])cc5)c5ccc2s5)C=C4)C=C3)cc1.[Na+].[Na+] [Compound 11]
EC50 (Colo-26 cells; [6]): 1200 nM | quantum yield for the generation of singlet oxygen φ(^1O2) [1]: 0.64 ± 0.01

O=S(=O)([O-])c1ccc(-c2c3nc(c(-c4ccc(C(F)(F)F)cc4)c4ccc(s4)c(-c4ccc(C(F)(F)F)cc4)c4nc(c(-c5ccc(S(=O)(=O)[O-])cc5)c5ccc2s5)C=C4)C=C3)cc1.[Na+].[Na+] [Compound 13]
rate of photobleaching (kbleach) [3]: 0.13 ± 0.02 × 10^4 s^−1 | EC50 (Colo-26 cells; [6]): > 100000 nM

CN(C)c1ccc(-c2c3nc(c(-c4ccc(S(=O)(=O)[O-])cc4)c4ccc(s4)c(-c4ccc(S(=O)(=O)[O-])cc4)c4nc(c(-c5ccc(N(C)C)cc5)c5ccc2s5)C=C4)C=C3)cc1.[Na+].[Na+] [Compound 14]
rate of photobleaching (kbleach) [3]: 0.77 ± 0.04 × 10^4 s^−1 | phototoxicity relative to Photofrin® toward R3230AC cells (surviving fraction, FIG. 4c) [4]: more phototoxic than Photofrin® | EC50 (Colo-26 cells; [6]): 600 nM | quantum yield for the generation of singlet oxygen φ(^1O2) [1]: 0.60 ± 0.02 | quantum yield for fluorescence φF (± σ) [2]: <10^−4

O=C([O-])COc1ccc(-c2c3nc(c(-c4ccccc4)c4ccc(s4)c(-c4ccccc4)c4nc(c(-c5ccc(OCC(=O)[O-])cc5)c5ccc2s5)C=C4)C=C3)cc1.[Na+].[Na+] [Compound 15]
rate of photobleaching (kbleach) [3]: 0.18 ± 0.02 × 10^4 s^−1 | EC50 (Colo-26 cells; [6]): 150 nM

O=S(=O)([O-])c1ccc(-c2c3nc(c(-c4ccc(F)cc4)c4ccc([se]4)c(-c4ccc(F)cc4)c4nc(c(-c5ccc(S(=O)(=O)[O-])cc5)c5ccc2[se]5)C=C4)C=C3)cc1.[Na+].[Na+] [DH-105]
rate of photobleaching (kbleach) [3]: 1.44 ± 0.03 × 10^4 s^−1 | phototoxicity relative to Photofrin® toward R3230AC cells (surviving fraction, FIG. 4c) [4]: more phototoxic than Photofrin® | EC50 (Colo-26 cells; [7]): 7900 nM | cures (no tumor regrowth 90 days post-treatment) (Colo-26 tumors; [8]): three cures | mean time to 400 mm^3 of the animals not cured (Colo-26 tumors; [8]): 17 ± 3 days | quantum yield for the generation of singlet oxygen φ(^1O2) [1]: 0.55 ± 0.02 | gross abnormalities in organs and tissues after sacrifice (BALB/c mice; 10 mg/kg i.v., after 90 days): no gross abnormalities were noted | toxicity and morbidity (BALB/c mice; 10 mg/kg, followed 90 days post-injection, normal vivarium light): neither toxicity nor morbidity was observed | fluorescence emission detected [2]: no detectable emission | quantum yield for fluorescence φF (± σ) [2]: <10^−4

CCCCCCOC(C)c1c(C)c2cc3nc(c4c5[nH]c(cc6nc(cc1[nH]2)C(C)=C6CC)c(C)c5C(=O)C4)[C@@H](CCC(=O)O)[C@@H]3C (stereo partly drawn) [HPPH, reference compound]
EC50 (Colo-26 cells; [7]): 300 nM | EC50 fold lower than for Photofrin® (Colo-26 cells; Colo-26 cells, 590-800 nm light): 30 fold

CC(=O)[O-].CC(=O)[O-].CCc1c(CC)c2cc3nc(cnc4cc(OCCOCCOCCOC)c(OCCOCCOCCOC)cc4ncc4nc(cc1[n-]2)C(CCCO)=C4C)C(C)=C3CCCO.O.[Lu+3] [Lu-Tex, lutetium texaphyrin]
skin photosensitivity [5]: minimal skin photosensitivity

O=S(=O)(O)c1ccc(-c2c3nc(c(-c4ccc(S(=O)(=O)O)cc4)c4ccc([nH]4)c(-c4ccc(S(=O)(=O)O)cc4)c4nc(c(-c5ccc(S(=O)(=O)O)cc5)c5ccc2[nH]5)C=C4)C=C3)cc1 [TPPS4, 5,10,15,20-Tetrakis (4-sulfonato-phenyl)porphyrin, reference compound]
EC50 (Colo-26 cells; [6]): 125000 nM | time to reach 400-mm^3 tumor volume (Colo-26 tumors; TPPS4 at 10 mg/kg): 6.7 ± 1.1 days | toxicity at high concentrations (mice): neurotoxicity | quantum yield for the generation of singlet oxygen φ(^1O2) [1]: 0.71^b

O=S(=O)([O-])c1ccc(-c2c3nc(c(-c4ccc(S(=O)(=O)[O-])cc4)c4ccc(s4)c(-c4ccc(S(=O)(=O)[O-])cc4)c4nc(c(-c5ccc(S(=O)(=O)[O-])cc5)c5ccc2[nH]5)C=C4)C=C3)cc1.[Na+].[Na+].[Na+].[Na+] [sulfonated 1]
efficacy in vivo relative to chlorin e6 (BFS1 sarcoma; BFS1 sarcoma-bearing mice): comparable to chlorin e6 for efficacy

O=S(=O)([O-])c1ccc(-c2c3nc(c(-c4ccc(S(=O)(=O)[O-])cc4)c4ccc([se]4)c(-c4ccc(S(=O)(=O)[O-])cc4)c4nc(c(-c5ccc(S(=O)(=O)[O-])cc5)c5ccc2[nH]5)C=C4)C=C3)cc1.[Na+].[Na+].[Na+].[Na+] [sulfonated 2]
skin photosensitization (BFS1 sarcoma; animals irradiated 24 h post-injection): no skin photosensitization was observed

benzoporphyrin derivative
duration of skin photosensitivity [5]: 3 to 5 days
